Results taken from PubChem BioAssay (NCI).
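Here, GI50 denotes the concentration required for 50% inhibition of growth. Definition used: TGI = concentration required for complete inhibition of growth.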

How the values were obtained:
Assay in all cases: NCI anticancer screen, dose series, 384-well format
COLO 205 colon = system: COLO 205 colon
DU-145 prostate = system: DU-145 prostate
EKVX NSCLC = system: EKVX NSCLC
HOP-92 NSCLC = system: HOP-92 NSCLC
LOX IMVI melanoma = system: LOX IMVI melanoma
MOLT-4 leukemia = system: MOLT-4 leukemia
NCI-H322M lung = system: NCI-H322M lung
NCI/ADR-RES ovarian = system: NCI/ADR-RES ovarian
OVCAR-5 ovarian = system: OVCAR-5 ovarian
RPMI-8226 leukemia = system: RPMI-8226 leukemia
SF-539 CNS = system: SF-539 CNS
SK-OV-3 ovarian = system: SK-OV-3 ovarian
TK-10 renal = system: TK-10 renal

`C[C@@H](Oc1cc(NS(=O)(=O)N2CCC2)nc(SCc2cccc(F)c2F)n1)[C@@H](O)CO` was tested, and the GI50 (COLO 205 colon) was greater than 89.8 µM, the TGI (COLO 205 colon) was greater than 100 µM and the GI50 (DU-145 prostate) was greater than 100 µM. For the same compound, the TGI (DU-145 prostate) was greater than 100 µM, the GI50 (EKVX NSCLC) was greater than 100 µM and the TGI (EKVX NSCLC) was greater than 100 µM. For the same compound, the GI50 (HOP-92 NSCLC) was greater than 88.1 µM, the TGI (HOP-92 NSCLC) was greater than 100 µM and the GI50 (LOX IMVI melanoma) was 42.1 µM. For the same compound, the TGI (LOX IMVI melanoma) was greater than 100 µM, the GI50 (MOLT-4 leukemia) was greater than 61.8 µM and the TGI (MOLT-4 leukemia) was greater than 100 µM. It also gave a GI50 (NCI-H322M lung) greater than 100 µM, a TGI (NCI-H322M lung) greater than 100 µM and a GI50 (NCI/ADR-RES ovarian) greater than 100 µM. For the same compound, the TGI (NCI/ADR-RES ovarian) was greater than 100 µM, the GI50 (OVCAR-5 ovarian) was greater than 100 µM and the TGI (OVCAR-5 ovarian) was greater than 100 µM. The GI50 (RPMI-8226 leukemia) was 20 µM, the TGI (RPMI-8226 leukemia) was greater than 60 µM and the GI50 (SF-539 CNS) was greater than 100 µM. The TGI (SF-539 CNS) was greater than 100 µM, the GI50 (SK-OV-3 ovarian) was greater than 83.6 µM and the TGI (SK-OV-3 ovarian) was greater than 100 µM. It also gave a GI50 (TK-10 renal) greater than 66 µM and a TGI (TK-10 renal) greater than 100 µM.

`COc1cc(C)[nH]c(=O)c1CN1CCc2c(Cl)cc([C@H](OC)C3COC3)c(Cl)c2C1=O` gave a GI50 (COLO 205 colon) greater than 100 µM, a TGI (COLO 205 colon) greater than 100 µM and a GI50 (DU-145 prostate) greater than 100 µM. For the same compound, the TGI (DU-145 prostate) was greater than 100 µM, the GI50 (EKVX NSCLC) was greater than 100 µM and the TGI (EKVX NSCLC) was greater than 100 µM. The GI50 (HOP-92 NSCLC) was greater than 100 µM, the TGI (HOP-92 NSCLC) was greater than 100 µM and the GI50 (LOX IMVI melanoma) was greater than 100 µM. For the same compound, the TGI (LOX IMVI melanoma) was greater than 100 µM, the GI50 (MOLT-4 leukemia) was greater than 100 µM and the TGI (MOLT-4 leukemia) was greater than 100 µM. The GI50 (NCI-H322M lung) was greater than 100 µM, the TGI (NCI-H322M lung) was greater than 100 µM and the GI50 (NCI/ADR-RES ovarian) was greater than 100 µM. The TGI (NCI/ADR-RES ovarian) was greater than 100 µM, the GI50 (OVCAR-5 ovarian) was greater than 100 µM and the TGI (OVCAR-5 ovarian) was greater than 100 µM. It also gave a GI50 (RPMI-8226 leukemia) of 0.0849 µM, a GI50 (SF-539 CNS) greater than 100 µM and a TGI (SF-539 CNS) greater than 100 µM. For the same compound, the GI50 (SK-OV-3 ovarian) was greater than 100 µM, the TGI (SK-OV-3 ovarian) was greater than 100 µM and the GI50 (TK-10 renal) was greater than 100 µM. For the same compound, the TGI (TK-10 renal) was greater than 100 µM.
